# Results reported in patent publication US7579018B2, “Microbiological control in aqueous systems” (Albemarle Corporation, priority 2000, dated 2009).
# Columns and labels:
# [1] = Iodometric titration of clear saturated stock solutions; format: physicochemical; conditions: 1 gram powder slurried in 100 mL deionized water, stirred 20 minutes, filtered
# Experimental: Stock solutions of DBDMH and of BCDMH were prepared by slurrying 1 gram of the respective powders in 100 mL of deionized water. After stirring for 20 minutes, the insolubles were filtered to yield clear saturated stock solutions of DBDMH and BCDMH, respectively. Iodometric titration of the stock solutions using the potassium iodide-sodium thiosulfate method indicated the DBDMH solution contained 580 mg/L (as total chlorine), and the BCDMH solution contained 1100 mg/L (as total chlorine).
# [2] = test system: heterotrophic bacteria; experiment: Cooling tower field trial, Example 2: heterotrophic bacteria plate counts
# Description: The effectiveness of DBDMH and of BCDMH in microbiological control in cooling tower water was investigated in comparative tests. The cooling tower consisted of two 500-ton units in a crossflow design. The total system-contained volume was 14,000 gallons, and the tower contained medium efficiency film fill. Water from the tower cooled the coils of two 300-ton air conditioners (chillers). The tower typically operated at a pH of about 9.1 and 4 cycles of concentration. Blowdown was controlled by conductivity. Make-up water consisted of softened city water and which was of good quality. The make-up water was very low in calcium (<10 mg/L) but high in pH (8.7). The alkalinity was 145 mg/L (as CaCO3), and the silica level was 28 mg/L. The tower employed a conventional polyphosphate/molybdate/phosphonate program to provide corrosion and deposit control.
# The BCDMH (20 lbs) was introduced to the water using 20-gram, 1-inch tablets charged to a solid halogen feeder (Neptune model BT-40, Neptune Chemical Pump Co., Inc., Lansdale, Pa.). Before each dose, the cooling tower water was sampled and enumerated for heterotrophic bacteria plate counts. Then the tower was slug dosed three times a week with BCDMH. Slug dosing was accomplished by diverting through the feeder containing the tablets a sidestream of the recirculating water for about 1 to 5 hours until a “free chlorine” dose of about 0.5 mg/L (as “free chlorine”) was obtained. The “total chlorine” dose was measured at the same time. After each dose the cooling water was sampled and enumerated for heterotrophic bacteria plate counts. As necessary, the feeder was replenished with more BCDMH tablets.
# For example, before the biocide dose the bacteria levels in the bulk water ranged from 10^5 to 10^4 CFUs/mL. After the biocide dose the bacteria levels in the bulk water were reduced to 10^4 to 10^3.
# After emptying the feeder of BCDMH tablets, 20 lbs of DBDMH granules was charged into the feeder. Thereupon the same procedure as described above for the BCDMH was carried out except for the fact that is was unnecessary to add any additional DBDMH to the feeder during the 30-day test period. In fact, the total weight of DBDMH consumed during the test was only 7 lbs.
# [3] = “free chlorine” (Hach Method 8021) and “total chlorine” (Hach Method 8167) in dosed simulated cooling water, Example 1; format: physicochemical; conditions: simulated cooling water pH 9.1, 38° C.
# Description: The standard tests for determination of “free chlorine” and “total chlorine” are based on classical test procedures devised by Palin in 1974. See A. T. Palin, “Analytical Control of Water Disinfection With Special Reference to Differential DPD Methods For Chlorine, Chlorine Dioxide, Bromine, Iodine and Ozone”, J. Inst. Water Eng., 1974, 28, 139. While there are various modernized versions of the Palin procedures, the version of the tests for “free chlorine” and “total chlorine” used and to be used as the standard in connection with this invention, are fully described in Hach Water Analysis Handbook, 3rd edition, copyright 1997. The procedure for “free chlorine” is identified in that publication as Method 8021 appearing on page 335, whereas the procedure for “total chlorine” is Method 8167 appearing at page 379. Briefly, the “free chlorine” test involves introducing to the halogenated water a powder comprising DPD indicator powder and a buffer. “Free chlorine” present in the water reacts with the DPD indicator to produce a red to pink coloration. The intensity of the coloration depends upon the concentration of “free chlorine” species present in the sample. This intensity is measured by a calorimeter calibrated to transform the intensity reading into a “free chlorine” value in terms of mg/L Cl2. Similarly, the “total chlorine” test also involves use of DPD indicator and buffer. In this case, KI is present with the DPD and buffer whereby the halogen species present, including nitrogen-combined halogen, reacts with KI to yield iodine species which turn the DPD indicator to red/pink. The intensity of this coloration depends upon the sum of the “free chlorine” species and all other halogen species present in the sample. Consequently, this coloration is transformed by the colorimeter into a “total chlorine” value expressed as mg/L Cl2.
# DBDAH and BCDMH Test Procedure • 1. To determine the amount of species present in the water which respond to the “free chlorine” and “total chlorine” tests, the water sample should be analyzed within a few minutes of being taken, and preferably immediately upon being taken. • 2. Hach Method 8021 for testing the amount of species present in the water sample which respond to the “free chlorine” test involves use of the Hach Model DR 2010 calorimeter. The stored program number for chlorine determinations is recalled by keying in “80” on the keyboard, followed by setting the absorbance wavelength to 530 nm by rotating the dial on the side of the instrument. Two identical sample cells are filled to the 10 mL mark with the water under investigation. One of the cells is arbitrarily chosen to be the blank. Using the 10 mL cell riser, this is admitted to the sample compartment of the Hach Model DR 2010, and the shield is closed to prevent stray light effects. Then the ZERO key is depressed. After a few seconds, the display registers 0.00 mg/L Cl2. To second cell, the contents of a DPD Free Chlorine Powder Pillow are added. This is shaken for 10-20 seconds to mix, as the development of a pink-red color indicates the presence of species in the water which respond positively to the DPD test reagent. Within one minute of adding the DPD “free chlorine” reagent to the 10 mL of water in the sample cell, the blank cell used to zero the instrument is removed from the cell compartment of the Hach Model DR 2010 and replaced with the test sample to which the DPD “free chlorine” test reagent was added. The light shield is then closed as was done for the blank, and the READ key is depressed. The result, in mg/L Cl2 is shown on the display within a few seconds. This is the “free chlorine” level of the water sample under investigation. • 3. Hach Method 8167 for testing the amount of species present in the water sample which respond to the “total chlorine” test involves use of the Hach Model DR 2010 calorimeter. […]
# [4] = Storage of tablets at 50° C. for 30 days, titration of active bromine, Example 24; format: physicochemical
# Description: 1,3-Dibromo-5,5-dimethylhydantoin was blended with micronized polyethylene wax (MPP-611) such that the blend contained 3 wt % of the wax. A sample of the blend (5 g) was introduced to a die made from Hastelloy® C alloy, and compacted to a pressure of 5000 psi. Three more samples (5 g each) were compacted in the same manner, and each time a single tablet was extracted from the die after the pressure had been released. In each case, before filling the die, its interior surfaces were lightly dusted with micronized polypropylene wax to serve as a lubricant. The tablets were manually broken into two equally-sized pieces. One half of each tablet was crushed into a powder with a mortar and pestle, and the powder was titrated to determine its wt % of active bromine. The other half of each tablet was placed in a sealed glass vial and placed in an oven at 50° C. After 30 days, the samples were removed from the oven, ground up, and titrated to determine its wt % of active bromine. For comparative purposes, a control sample of commercially produced 1,3-dibromo-5,5-dimethylhydantoin having an average particle size of about 64.5μ (containing no micronized polyethylene wax) was subjected to the same operations.
# Table 16 lists the results obtained for four samples of 1,3-dibromo-5,5-dimethylhydantoin/3 wt % micronized polyethylene wax blends, along with the control sample containing no additive.
# [5] = dosed to 1 mg/L as total chlorine, Time 0 hr
# [6] = Time 0.5 hr, percentage of Time 0 value
# [7] = Time 1 hr, percentage of Time 0 value
# [8] = Time 1.5 hr, percentage of Time 0 value
# [9] = Time 2 hr, percentage of Time 0 value
# [10] = Time 3 hr, percentage of Time 0 value
# [11] = Time 4 hr, percentage of Time 0 value
# [12] = Time 5 hr, percentage of Time 0 value
# [13] = Time 6 hr, percentage of Time 0 value
compound,measurement,setting,value
"CC1(C)C(=O)N(Cl)C(=O)N1Br [BCDMH, N,N′-bromochloro-5,5-dimethylhydantoin, reference compound]",halogen content of saturated stock solution (as total chlorine),[1],1100 mg/L
same,average reduction of heterotrophic bacterial levels in the bulk water,[2]; biocide dose 0.5 mg/L “free chlorine”,1 order of magnitude
same,bacteria levels in the bulk water after the biocide dose,"[2]; biocide dose 0.5 mg/L “free chlorine”, before dose 10^5 to 10^4 CFUs/mL",10^4 to 10^3 CFUs/mL
same,Bacteria reduction,"[2]; slug dose 3 times/week, 0.5 ppm free Cl2, cooling tower water",1.5-2 logs
same,Free Cl2,[3]; [5],23.1
same,Total Cl2,[3]; [5],100
same,% hydrolysis to Free Cl2,[3]; Time 0 hr,23.1%
same,% hydrolysis to Free Cl2,[3]; Time 0.5 hr,24.7%
same,Free Cl2,[3]; [6],25.6%
same,Total Cl2,[3]; [6],104%
same,% hydrolysis to Free Cl2,[3]; Time 1 hr,23.1%
same,Free Cl2,[3]; [7],23.1%
same,Total Cl2,[3]; [7],100%
same,% hydrolysis to Free Cl2,[3]; Time 1.5 hr,19.4%
same,Free Cl2,[3]; [8],17.9%
same,Total Cl2,[3]; [8],92.3%
same,% hydrolysis to Free Cl2,[3]; Time 2 hr,18.8%
same,Free Cl2,[3]; [9],16.6%
same,Total Cl2,[3]; [9],88.5%
same,% hydrolysis to Free Cl2,[3]; Time 3 hr,18.8%
same,Free Cl2,[3]; [10],16.6%
same,Total Cl2,[3]; [10],88.5%
same,% hydrolysis to Free Cl2,[3]; Time 4 hr,38.7%
same,Free Cl2,[3]; [11],30.7%
same,Total Cl2,[3]; [11],79.5%
same,% hydrolysis to Free Cl2,[3]; Time 5 hr,20%
same,Free Cl2,[3]; [12],15.4%
same,Total Cl2,[3]; [12],76.9%
same,% hydrolysis to Free Cl2,[3]; Time 6 hr,14.3%
same,Free Cl2,[3]; [13],10.2%
same,Total Cl2,[3]; [13],71%
"CC1(C)C(=O)N(Br)C(=O)N1Br [Control, 1,3-dibromo-5,5-dimethylhydantoin]","Wt % Active Bromine, After 30 days","[4]; sealed glass vial in oven at 50° C., 30 days",55.2 Wt %
same,"Wt % Active Bromine, Initial",[4]; tablet half crushed and titrated before storage,55.3 Wt %
